Data published in ChEMBL document CHEMBL1145347, “A gatekeeper residue for inhibitor sensitization of protein tyrosine phosphatases” (Bioorg Med Chem Lett, 2006).

Key:
[1] = biological target: T1, Tyrosine-protein phosphatase non-receptor type 1 (Homo sapiens) (UniProt P18031); assay: Selectivity for PTP1B V49A over wild type PTP1B
T1 sequence (whole entry): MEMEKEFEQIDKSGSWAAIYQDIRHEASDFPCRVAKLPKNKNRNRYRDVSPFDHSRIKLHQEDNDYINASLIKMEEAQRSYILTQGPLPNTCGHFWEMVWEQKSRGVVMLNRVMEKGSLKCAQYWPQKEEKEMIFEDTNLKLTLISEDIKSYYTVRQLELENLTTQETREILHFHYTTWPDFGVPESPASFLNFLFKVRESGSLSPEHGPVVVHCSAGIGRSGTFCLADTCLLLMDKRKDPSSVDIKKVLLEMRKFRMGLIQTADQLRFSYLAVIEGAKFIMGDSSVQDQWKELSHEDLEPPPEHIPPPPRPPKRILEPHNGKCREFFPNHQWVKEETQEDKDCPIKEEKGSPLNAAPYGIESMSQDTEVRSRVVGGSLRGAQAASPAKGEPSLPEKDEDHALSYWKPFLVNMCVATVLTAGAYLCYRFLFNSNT

[2] = system: Tyrosine-protein phosphatase non-receptor type 1 (Homo sapiens), P18031 [UNDEFINED MUTATION]; assay: Selectivity for PTP1B I219A over wild type PTP1B
[3] = biological target: Tyrosine-protein phosphatase non-receptor type 1 (Homo sapiens, UniProt P18031, V49A); assay: Inhibition of PTP1B V49A mutant
Chain of Tyrosine-protein phosphatase non-receptor type 1 (Homo sapiens, UniProt P18031, V49A) (P18031 whole entry V49A): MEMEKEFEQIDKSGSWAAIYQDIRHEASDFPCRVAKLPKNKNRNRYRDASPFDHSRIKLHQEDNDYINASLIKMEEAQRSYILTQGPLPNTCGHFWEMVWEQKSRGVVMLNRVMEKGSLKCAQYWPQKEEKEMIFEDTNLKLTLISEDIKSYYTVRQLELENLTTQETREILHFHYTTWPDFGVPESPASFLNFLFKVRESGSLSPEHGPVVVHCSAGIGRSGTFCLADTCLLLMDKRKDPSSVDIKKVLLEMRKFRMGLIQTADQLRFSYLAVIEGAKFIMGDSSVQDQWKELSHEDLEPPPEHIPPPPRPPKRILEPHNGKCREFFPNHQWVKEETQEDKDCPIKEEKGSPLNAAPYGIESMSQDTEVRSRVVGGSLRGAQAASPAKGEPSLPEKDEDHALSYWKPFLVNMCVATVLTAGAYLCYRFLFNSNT

[4] = biological target: Tyrosine-protein phosphatase non-receptor type 1 (Homo sapiens, UniProt P18031, I219A); assay: Inhibition of PTP1B I219A mutant
Chain of Tyrosine-protein phosphatase non-receptor type 1 (Homo sapiens, UniProt P18031, I219A) (P18031 whole entry I219A): as the sequence (P18031 whole entry V49A) above, with A49V, I219A counted along it

[5] = biological target: T2, Tyrosine-protein phosphatase non-receptor type 1 (Homo sapiens, UniProt P18031); assay: Inhibition of wild type PTP1B
T2 sequence (P18031 whole entry): T1 sequence (whole entry)

[6] = biological target: Tyrosine-protein phosphatase non-receptor type 2 (Homo sapiens, UniProt P17706, I220A); assay: Inhibition of TCPTP I220A mutant
Chain of Tyrosine-protein phosphatase non-receptor type 2 (Homo sapiens, UniProt P17706, I220A) (P17706 whole entry I220A): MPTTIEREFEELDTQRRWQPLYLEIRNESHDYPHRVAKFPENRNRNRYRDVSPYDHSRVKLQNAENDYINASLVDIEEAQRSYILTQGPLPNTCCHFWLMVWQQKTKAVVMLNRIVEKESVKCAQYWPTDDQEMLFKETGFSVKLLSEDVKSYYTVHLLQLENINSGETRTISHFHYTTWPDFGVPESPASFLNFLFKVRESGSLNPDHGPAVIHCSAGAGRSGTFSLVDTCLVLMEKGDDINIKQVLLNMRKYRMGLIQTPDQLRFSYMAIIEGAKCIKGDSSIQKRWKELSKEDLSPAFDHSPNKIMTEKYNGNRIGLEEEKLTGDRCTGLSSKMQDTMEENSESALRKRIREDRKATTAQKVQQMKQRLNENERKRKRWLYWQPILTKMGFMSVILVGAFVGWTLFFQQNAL

[7] = biological target: T3, Tyrosine-protein phosphatase non-receptor type 2 (Homo sapiens, UniProt P17706); assay: Inhibition of TCPTP
T3 sequence (P17706 whole entry): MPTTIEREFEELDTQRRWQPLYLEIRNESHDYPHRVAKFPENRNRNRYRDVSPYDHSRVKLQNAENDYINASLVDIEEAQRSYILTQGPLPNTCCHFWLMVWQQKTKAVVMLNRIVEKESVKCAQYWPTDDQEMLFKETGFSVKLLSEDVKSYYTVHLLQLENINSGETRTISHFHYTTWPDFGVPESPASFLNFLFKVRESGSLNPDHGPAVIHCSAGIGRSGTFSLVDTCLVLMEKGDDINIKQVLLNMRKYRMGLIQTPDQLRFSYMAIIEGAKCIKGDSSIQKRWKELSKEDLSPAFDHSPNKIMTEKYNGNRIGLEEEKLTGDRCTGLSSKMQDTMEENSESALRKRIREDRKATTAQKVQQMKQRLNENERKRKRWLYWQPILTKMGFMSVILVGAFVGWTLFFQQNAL

CC1(C)Cc2c(sc(NC(=O)C(=O)O)c2C(=O)O)C(C)(C)C1
Selectivity ratio [1]: > 10 | Selectivity ratio [2]: > 30 | Ki [3]: 27 µM | Ki [4]: 10 µM | Ki [5]: > 300 µM

O=C(O)C(=O)Nc1sc2c(c1C(=O)O)CCNC2
Ki [4]: 0.23 µM | Ki [6]: 0.71 µM | Ki [5]: 6 µM | Ki [7]: 10 µM
